# According to patent US8974834B2, “Method for producing reservoir layer for hoof treatment and reservoir layer” (Ecolab USA Inc., priority 2010, dated 2015):
# Key:
# [1] = Formation of a precipitate on mixing a surfactant with aqueous polyaluminium chloride/glutaraldehyde solution; assay type: physicochemical; details: mixed with aqueous solution (a) containing polyaluminium chloride and 7% glutaraldehyde
# Experimental: (§1) 50 ml of an aqueous solution (a) containing approximately 31.5 weight % polyaluminium chloride (dialuminum chloride pentahydroxide), 7% glutaraldehyde was mixed with 10 g Texapon®NSO (C12-C14 alkyl ether sulfate with 2 mole EO). Before mixing the aluminium content of the aqueous solution (a) was about 9.5 weight %. […] The white precipitate was analyzed with respect to its contents of glutaraldehyde, Texapon®NSO. The content of polyaluminium chloride was analyzed by the content of Al-ions by XRF.
# 50 ml of an aqueous solution (a) containing 10% polyaluminium chloride and 7% glutaraldehyde was mixed with 50 ml of an aqueous solution (b) containing 10 weight % dodecylbenzenesulphonic acid. Before mixing the aluminium content of the aqueous solution (a) was about 3 weight %.
# 50 ml of an aqueous solution (a) containing 10% polyaluminium chloride, 7% glutaraldehyde was mixed with 50 ml of an aqueous solution (b) containing 10 weight % N-alkyl(C12-C16)-N-benzyl-N,N-dimethylammonium chloride (Barquat®DM-50).
# [2] = Chemical analysis of the precipitate (contents of glutaraldehyde and Texapon NSO; Al by XRF); assay type: physicochemical; details: white precipitate from 50 ml solution (a) (31.5 weight % polyaluminium chloride, 7% glutaraldehyde) mixed with 10 g Texapon NSO
# Experimental: as §1
formation of a precipitate upon mixing [1],quantified values (content in the precipitate) [2] [%],Compound
white solid immediately was formed,,CCCCCCCCCCCCc1ccc(S(=O)(=O)O)cc1 [dodecylbenzenesulphonic acid]
,3.7,O=CCCCC=O [glutaraldehyde]
